How the values were obtained:
[1] = Parallel artificial membrane permeability assay, gastrointestinal (PAMPA-GI / PAMPA-GTI); conditions: Table S1, PAMPA-GTI; for Fa: absorbed fraction
Procedure: A 10 mM solution of each compound (tests and controls) was prepared in DMSO. Then, in a 5 mL glass flask, 250 µL of the freshly prepared solution was homogenized with 4750 µL of PBS at pH 6.6 to a concentration of 10 mM. The solution was then filtered in a 0.45 µm PVDF filter and set aside. Then, 180 µL of a solution of phosphate-bufffered saline (PBS, pH 7.4):DMSO (95:5) was added to the wells of the receptor plate, and 5 µL of the soy L-α-phosphatidylcholine lipid solution (20 mg/mL in dodecane) was added to the wells of the donor plate. After 5 min, the donor plate received 180 µL of the reserved solution containing each compound. […] After this period, the donor plate was removed, and the contents of the recipient plate were transferred to a UV reading plate and read (SpectraMax 5, Molecular Devices) at the maximum wavelengths for each compound. The blank was prepared with 180 µL of PBS solution (pH 7.4):DMSO (95:5). The experiments were carried out in triplicate with two different analyses (n = 2) [37]. The optical density values obtained from the readings at each selected wavelength for each of the compounds were analyzed by comparison with the values of the controls. These values were used to determine the absorbed fraction (Fa %) using the JMP® program version 10.0.

[2] = set-up: method as in ZHU et al., 2002; conditions: Table S1, PAMPA-GTI, drugs used as standard; ref ZHU et al., 2002; cited from earlier work
[3] = tested on: formalin-induced licking behavior in mice; test: Formalin-induced licking behavior; assay type: in vivo, Swiss Webster mice; conditions: morphine 2.5 mg/kg i.p., ASA 200 mg/kg p.o., LASSBio-2265 1, 3 and 10 mg/kg p.o., compared to vehicle
Procedure: This assay was performed as described by Hunskaar et al. and adapted by Gomes et al.. This model was characterized by a response that occurred in two phases. The first phase (acute neurogenic pain) occurred during the first 5 min after the intraplantar injection of formalin, and the second phase (inflammatory pain) occurred 15 to 30 min post-injection. Mice were pretreated with oral doses of LASSBio-2265 (11, at 1, 3 or 10 mg/kg, p.o.), morphine (2.5 mg/kg, i.p.), acetylsalicylic acid (ASA, 200 mg/kg, p.o.), or the vehicle (same amount of DMSO used to solubilize the substances + NaCl 0.9%) 60 min before the administration of formalin. […] Then, mice (n = 7 per group) received 20 μL of formalin (2.5% v/v) in the dorsal surface of the left hind paw. The time that the mice spent licking the injected paw was immediately recorded. […] The final volume administered to mice was 0.1 mL.

Nc1nc2c(ncn2COCCO)c(=O)[nH]1 [Acyclovir, reference compound]
Pe Exp [1]: 0,08 10-6 cm/s

O=c1ccc2ccccc2o1 [Coumarin, reference compound]
Classification [1]: HIGH (high intestinal permeability: >70%) | Pe Exp [1]: 22,65 10-6 cm/s | Fa [1]: 99,98%

C[C@]12C=CC(=O)C=C1CC[C@@H]1[C@@H]2C(=O)C[C@@]2(C)[C@H]1CC[C@]2(O)C(=O)CO [Prednisone, reference compound]
Pe Exp [1]: 3,09 10-6 cm/s

O=C(O)Cc1ccccc1Nc1c(Cl)cccc1Cl [Diclofenac, reference compound]
Pe Lit [2]: 12,5 10-6cm/s

CC(=O)N1CCN(c2ccc(OCC3COC(Cn4ccnc4)(c4ccc(Cl)cc4Cl)O3)cc2)CC1 (centres unmarked) [Ketoconazole, reference compound]
Classification [1]: HIGH (high intestinal permeability: >70%) | Pe Exp [1]: 4,93 10-6 cm/s | Fa [1]: 84,68% | Pe Lit [2]: 3,3 10-6cm/s

CC(=O)Oc1ccccc1C(=O)O [acetylsalicylic acid, reference compound]
Analgesia in the first phase of the formalin test [3]: only morphine (2.5 mg/kg) promoted significant analgesia | Classification [1]: AVERAGE (medium intestinal permeability: 30–69%) | Pe Exp [1]: 1,69 10-6 cm/s | Fa [1]: 47,36% | Pe Lit [2]: 3,8 10-6cm/s

O=C(O)c1cc(/N=N/c2ccc(S(=O)(=O)Nc3ccccn3)cc2)ccc1O [Sulfassalazine]
Pe Lit [2]: 0,3 10-6cm/s

CNC(=C[N+](=O)[O-])NCCSCc1ccc(CN(C)C)o1 [Ranitidine, reference compound]
Classification [1]: LOW (low intestinal permeability: <29%) | Pe Exp [1]: 0,38 10-6 cm/s | Fa [1]: 13,48%

CN1CC[C@]23c4c5ccc(O)c4O[C@H]2[C@@H](O)C=C[C@H]3[C@H]1C5 [morphine, reference compound]
Analgesia in the first phase of the formalin test [3]: promoted significant analgesia

From PMC9781268, “2-Arylpropionic Acid Pyrazolamides as Cannabinoid CB2 Receptor Inverse Agonists Endowed with Anti-Inflammatory Properties” (Pharmaceuticals, 2022)
